# According to US10562912B2 (C&C Research Laboratories, priority 2013, dated 2020):
# Key:
# Format in all cases: cell-based
# [1] = test system: HEL92.1.7; assay: Cell growth inhibition assay, blood cancer cell line HEL92.1.7; details: Homo sapiens, HEL 92.1.7, HEL92.1.7 blood cancer cell line
# Protocol: The inhibitory effects of the compounds of the present invention against the growth of cancer cells were evaluated as shown below. The cancer cell lines including stomach cancer cell line (AGS), breast cancer cell lines (MDA-MB-231, MDA-MB-468, and BT-549), prostate cancer cell lines (LNCaP and DU-145), colon cancer cell line (HCT116), ovarian cancer cell line (SW626), liver cancer cell line (Hep3B), kidney cancer cell line (ACHN), lung cancer cell line (NCI-H23) and blood cancer cell lines (HEL92.1.7 and U266) were cultured under the protocol provided by each supplier. A medium supplemented with 10 ng/mL of IL-6 was used for LNCaP, a prostate cancer cell line, when treated with a drug. Each type of cells to be used in experiments were sub-cultured in a 96-well plate by counting the exact number of cells using Tali™ Image-based Cytometer (Life Technologies). In a 96-well plate, AGS, HCT116, and DU-145 were employed with 3,000 cells/well; NCI-H23, SW626, Hep3B, ACHN, BT-549, MDA-MB-231, HEL92.1.7, and U266 were employed with 5,000 cells/well; and LNCaP and MDA-MB-468 were employed with 10,000 cells/well. The cells were treated with the compounds listed in Examples which were diluted in various concentrations. Upon completion of the compounds treatment, AGS, HCT116, SW626, DU145, NCI-H23, Hep3B, ACHN, BT-549, LNCaP, HEL92.1.7, and U266 cells were cultured at 37° C. under 5% CO2 for from 72 to 96 hours, and MDA-MB-231 and MDA-MB-468 cells were cultured at 37° C. in air for from 72 to 96 hours. Subsequently, the cells were observed under microscope and drug precipitation and particular findings were investigated and recorded. And then, the 96-well plate was placed at room temperature for 30 minutes, added with 20 μL/well of CellTiter-Glo solution (Cat No. G7573, Promega) and shaken for 10 minutes, followed by being subjected to the measurement using PHERAstar™ microplate reader (BMG LABTECH) according to the supplier's general luminometer protocol. Wells where only culture liquid added without cell plating were used as a negative control, whereas wells where culture liquid containing 0.1% DMSO instead of the compounds listed in Examples were used as a positive control.
# [2] = test system: LNCaP; assay: Cell growth inhibition assay, prostate cancer cell line LNCaP (medium with 10 ng/mL IL-6); details: Homo sapiens, medium supplemented with 10 ng/mL of IL-6, 10,000 cells/well
# [3] = test system: DU-145; assay: Cell growth inhibition assay, prostate cancer cell line DU-145; details: Homo sapiens, DU-145 prostate cancer cell line
# Summary of the method: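 Readout was CellTiter-Glo luminescence after 72–96 h of compound exposure at 37 °C, 5% CO2. Plating density was 3,000 cells/well for DU-145 and HCT116 and 5,000 cells/well for SW626. Controls were 0.1% DMSO wells and medium-only wells.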
# [4] = target: T1, STAT3 (Homo sapiens, UniProt P40763); assay: STAT3 reporter gene assay (luciferase), LNCaP stable cell line (pSTAT3-TA-luc), IL-6 stimulation
# T1 construct: plasmid pSTAT3-TA-luc), which contains a stably operating STAT3 promoter; endogenous in cells
# Summary of the method: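 Cytotoxicity was run on a duplicate plate with CellTiter-Glo, while the other plate gave luciferase read-outs from lysed LNCaP pSTAT3-TA-luc reporter cells. Cells were treated with graded compound concentrations plus IL-6 (10 ng/mL final) for 24–48 h in 3% DCC-FBS medium. Unstimulated and stimulated wells served as negative and positive controls.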
# T1 sequence (P40763 whole entry): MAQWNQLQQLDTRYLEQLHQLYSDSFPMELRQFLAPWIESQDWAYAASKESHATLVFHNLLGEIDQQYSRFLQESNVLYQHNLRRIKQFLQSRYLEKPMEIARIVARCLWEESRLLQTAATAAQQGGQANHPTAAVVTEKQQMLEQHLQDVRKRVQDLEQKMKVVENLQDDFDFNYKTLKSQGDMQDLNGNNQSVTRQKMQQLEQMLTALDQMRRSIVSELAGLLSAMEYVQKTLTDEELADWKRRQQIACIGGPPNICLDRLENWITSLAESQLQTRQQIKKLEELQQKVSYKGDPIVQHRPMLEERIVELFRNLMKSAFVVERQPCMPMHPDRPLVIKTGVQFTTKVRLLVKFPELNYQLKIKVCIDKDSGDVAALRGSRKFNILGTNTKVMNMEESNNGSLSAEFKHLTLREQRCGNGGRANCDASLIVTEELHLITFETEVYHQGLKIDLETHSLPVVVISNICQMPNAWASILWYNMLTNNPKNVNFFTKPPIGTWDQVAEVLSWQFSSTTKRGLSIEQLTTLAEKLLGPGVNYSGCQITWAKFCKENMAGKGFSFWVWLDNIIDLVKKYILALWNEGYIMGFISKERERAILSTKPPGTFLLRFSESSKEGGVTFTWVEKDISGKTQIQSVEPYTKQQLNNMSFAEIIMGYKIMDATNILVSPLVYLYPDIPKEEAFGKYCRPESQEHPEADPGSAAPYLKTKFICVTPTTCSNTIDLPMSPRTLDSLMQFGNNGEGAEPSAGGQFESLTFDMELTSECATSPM
IC50 [1] [µM],IC50 [2] [µM],IC50 [3] [µM],IC50 [4] [µM],Compound
0.3,0.28,0.19,0.069,"CC(C)Oc1cc(OC(F)(F)F)cc(C(C)(C)c2cc(Cl)cc(NC(=O)c3cc4cc(NS(=O)(=O)c5ccn(C)n5)ccc4s3)c2)c1 [Example 200, N-(3-chloro-5-(2-(3-isopropoxy-5-(trifluoromethoxy)phenyl)propan-2-yl)phenyl)-5-((1-methyl-1H-pyrazole)-3-sulfonamido)benzo[b]thiophene-2-carboxamide]"
1,0.58,0.38,> 10,"COc1cc(OC(F)(F)F)cc(C(C)(C)c2cc(Cl)nc(NC(=O)c3cc4cc(NS(C)(=O)=O)ccc4s3)c2)c1 [Example 148, N-(6-chloro-4-(2-(3-methoxy-5-(trifluoromethoxy)phenyl)propan-2-yl)pyridin-2-yl)-5-(methylsulfonamido)benzo[b]thiophene-2-carboxamide]"
0.087,0.024,0.008,0.015,"CC(C)(c1cc(Cl)cc(NC(=O)c2cc3cc(NS(C)(=O)=O)ccc3s2)c1)c1cc(OCC(F)(F)F)cc(OC(F)(F)F)c1 [Example 88, N-(3-chloro-5-(2-(3-(2,2,2-trifluoroethoxy)-5-(trifluoromethoxy)phenyl)propan-2-yl)phenyl)-5-(methylsulfonamido)benzo[b]thiophene-2-carboxamide]"
0.014,0.008,0.002,0.004,"CC(C)Oc1cc(OC(F)(F)F)cc(C(C)(C)c2cc(Cl)cc(NC(=O)c3cc4cc(NS(C)(=O)=O)c(F)cc4s3)c2)c1 [Example 84, N-(3-chloro-5-(2-(3-isopropoxy-5-(trifluoromethoxy)phenyl)propan-2-yl)phenyl)-6-fluoro-5-(methylsulfonamido)benzo[b]thiophene-2-carboxamide]"
0.33,0.22,0.08,0.17,"CC(C)Oc1cc(OC(F)(F)F)cc(C(C)(C)c2cc(Cl)cc(NC(=O)c3cc4cc(NS(=O)(=O)CCN(C)C)ccc4s3)c2)c1 [Example 208, N-(3-chloro-5-(2-(3-isopropoxy-5-(trifluoromethoxy)phenyl)propan-2-yl)phenyl)-5-((2-(dimethylamino)ethyl)sulfonamido)benzo[b]thiophene-2-carboxamide]"
0.95,1.1,0.3,0.38,"CC(C)Oc1cc(OC(F)(F)F)cc(C(C)(C)c2cc(Cl)cc(N(C)C(=O)c3cc4cc(N(C)S(C)(=O)=O)c(F)cc4s3)c2)c1 [Example 216, N-(3-chloro-5-(2-(3-isopropoxy-5-(trifluoromethoxy)phenyl)propan-2-yl)phenyl)-6-fluoro-N-methyl-5-(N-methylmethylsulfonamido)benzo[b]thiophene-2-carboxamide]"
0.35,0.19,0.051,0.19,"CC(=O)N1CCC(S(=O)(=O)Nc2ccc3sc(C(=O)Nc4cc(Cl)cc(C(C)(C)c5cc(OC(C)C)cc(OC(F)(F)F)c5)c4)cc3c2)CC1 [Example 206, 5-((1-acetylpiperidine)-4-sulfonamido)-N-(3-chloro-5-(2-(3-isopropoxy-5-(trifluoromethoxy)phenyl)propan-2-yl)phenyl)benzo[b]thiophene-2-carboxamide]"
0.05,0.095,0.017,0.051,"CC(C)Oc1cc(OC(F)(F)F)cc(C(C)(C)c2cc(Cl)cc(NC(=O)c3cc4cc(NS(=O)(=O)C5CCOC5)ccc4s3)c2)c1 (centres unmarked) [Example 204, N-(3-chloro-5-(2-(3-isopropoxy-5-(trifluoromethoxy)phenyl)propan-2-yl)phenyl)-5-((tetrahydrofuran)-3-sulfonamido)benzo[b]thiophene-2-carboxamide]"

# Further lines, the molecule ahead of its results:
Compound,IC50 [1] [µM],IC50 [2] [µM],IC50 [3] [µM],IC50 [4] [µM]
CC(C)(c1cc(Cl)cc(NC(=O)c2cc3cc(NS(C)(=O)=O)ccc3s2)c1)n1cnccc1=O [Example 189],> 1.1,> 10,> 1.1,> 10
"COc1ccc(C(C)(C)c2cc(Cl)cc(NC(=O)c3cc4cc(NS(C)(=O)=O)ccc4s3)c2)cc1 [Example 155, N-(3-chloro-5-(2-(4-methoxyphenyl)propan-2-yl)phenyl)-5-(methylsulfonamido)benzo[b]thiophene-2-carboxamide]",0.13,0.034,0.061,0.078
"CN(C)S(=O)(=O)N1CCN(Cc2cc(OC(F)(F)C(F)F)cc(C(C)(C)c3cc(Br)cc(NC(=O)c4cc5cc(NS(C)(=O)=O)ccc5s4)c3)c2)CC1 [Example 139, N-(3-bromo-5-(2-(3-((4-(N,N-dimethylsulfamoyl)piperazin-1-yl)methyl)-5-(1,1,2,2-tetrafluoroethoxy)phenyl)propan-2-yl)phenyl)-5-(methylsulfonamido)benzo[b]thiophene-2-carboxamide]",0.69,0.17,0.073,0.11
"CC(C)(c1cc(F)cc(NC(=O)c2cc3cc(NS(C)(=O)=O)ncc3s2)c1)c1cc(OC(F)(F)F)cc(OC(F)(F)C(F)F)c1 [Example 86, N-(3-fluoro-5-(2-(3-(1,1,2,2-tetrafluoroethoxy)-5-(trifluoromethoxy)phenyl)propan-2-yl)phenyl)-5-(methylsulfonamido)thieno[2,3-c]pyridine-2-carboxamide]",0.23,0.075,0.047,0.072
"CC(C)(c1ccc(Br)cc1)c1cc(Cl)cc(NC(=O)c2cc3cc(NS(C)(=O)=O)ccc3s2)c1 [Example 152, N-(3-(2-(4-bromophenyl)propan-2-yl)-5-chlorophenyl)-5-(methylsulfonamido)benzo[b]thiophene-2-carboxamide]",0.21,0.059,0.047,0.12
"CS(=O)(=O)Nc1ccc2sc(C(=O)Nc3cc(Cl)cc(-c4ccc(F)cc4F)c3)cc2c1 [Example 323, N-(5-chloro-2′,4′-difluoro-[1,1′-biphenyl]-3-yl)-5-(methylsulfonamido)benzo[b]thiophene-2-carboxamide]",0.097,0.063,0.035,0.11
"CC(C)(c1cc(Br)cc(NC(=O)c2cc3cc(NS(C)(=O)=O)ccc3s2)c1)c1cc(CN2CCN(C3COC3)CC2)cc(OC(F)(F)C(F)F)c1 [Example 141, N-(3-bromo-5-(2-(3-((4-(oxetan-3-yl)piperazin-1-yl)methyl)-5-(1,1,2,2-tetrafluoroethoxy)phenyl)propan-2-yl)phenyl)-5-(methylsulfonamido)benzo[b]thiophene-2-carboxamide]",1.05,0.36,0.14,0.38
"CS(=O)(=O)Nc1ccc2sc(C(=O)Nc3cc(Br)cc(S(=O)(=O)N4CCC(F)(F)CC4)c3)cc2c1 [Example 420, N-(3-bromo-5-((4,4-difluoropiperidin-1-yl)sulfonyl)phenyl)-5-(methylsulfonamido)benzo[b]thiophene-2-carboxamide]",2.4,1.7,0.95,0.82
"COc1ccc(C(C)(C)c2cc(Cl)cc(NC(=O)c3cc4cc(NS(C)(=O)=O)ccc4s3)c2)c(OC)c1 [Example 154, N-(3-chloro-5-(2-(2,4-dimethoxyphenyl)propan-2-yl)phenyl)-5-(methylsulfonamido)benzo[b]thiophene-2-carboxamide]",0.34,0.11,0.17,0.14
